Calls of active or inactive are those of the source. How the calls were made is not given here. *1 amine or outer side, *2 acyl side, *3 side chain or, on linkers, in order; H or OH if unused. Where a SMILES comes first, the peptide text is derived from it. [ ]: non-standard residue; d: D form. X2 = CCC[C@@H](N[*:1])[C@H](C)C(=O)O[C@H](C(=O)[*:2])[C@@H](C)CC; X1 = CC(N[*:1])C(=O)C(C)(C)C(=O)[*:2]; NMeY = CN[C@@H](Cc1ccc(O)cc1)C(=O)O; NMeL = CN[C@@H](CC(C)C)C(=O)O; NMeV = CN[C@H](C(=O)O)C(C)C; NMeA = CN[C@@H](C)C(=O)O
System: HEK-293T NF-kB luciferase reporter counterscreen, luminescence
Test: NF-kB reporter inhibition in HEK-293T, dose response, counter-screen for T-cell antigen receptor NF-kB inhibitors, HEK-293T cells, luminescence (AID 489041)

Structure (SMILES) | IC50
CCC[C@H]1NC(=O)[C@H](C)N(C)C(=O)C(C)(C)C(=O)C(C)NC(=O)[C@H](Cc2ccc(OC)cc2)N(C)C(=O)[C@H](C(C)C)N(C)C(=O)CNC(=O)[C@H](CC(C)C)N(C)C(=O)CNC(=O)[C@H]([C@@H](C)CC)OC(=O)[C@H]1C (stereo partly specified) (cyclo(G[NMeL]G[NMeV][NMeY](Me)[X1][NMeA][X2])) | 46.7 µM (inactive)
CCn1nc(C)c(CNC(=O)c2ccc(OC3CCN(Cc4ccccn4)CC3)cc2)c1C | 1.72 µM
O=C(NCCOc1ccccc1)c1cc([N+](=O)[O-])ccc1N1CCOCC1 | 72.2 µM (inactive)
CN=c1scc(-c2cccs2)n1/N=C/c1ccccc1O | < 0.16 µM
COc1ccc(/C=c2/sc3n(c2=O)C(c2ccccc2OC)C2=C(N=3)c3ccccc3CC2)cc1O (stereo unspecified) | > 80 µM (inactive)
CCOc1ccccc1C1CC(=O)Nc2cc3c(cc21)OCO3 (stereo unspecified) | 6.14 µM
COc1ccccc1-c1nnc2n1N=C(c1ccc(O)c(O)c1)CS2 | 2.41 µM
CCN(CC)c1ccc(-c2nn3c(-c4ccccc4OC)nnc3s2)cc1 | 1.87 µM
C=C1C(=O)O[C@H]2C[C@@H](C)[C@@H]3C=CC(=O)[C@@]3(C)C[C@H]12 | 5.84 µM
O=C(Nc1ccc(F)cc1)c1ccc(CN2CCc3ccccc3C2)cc1 | 4.71 µM
CC[n+]1cc(C)ccc1/C=C/c1ccc(N(C)C)cc1 | 3.97 µM
CC(=O)NC(c1ccc(C(C)C)cc1)c1ccc2cccnc2c1O (stereo unspecified) | 40.7 µM (inactive)
CC1CCN(c2c(NCc3ccc(C(=O)N4CCc5ccccc54)cc3)c(=O)c2=O)CC1 | 7.14 µM
CCCCCCCCC[n+]1cccc2c3ccccc3ccc21 | 0.55 µM
CCCN(CCC)C1=CC(=[N+]2CCCC2)CC(C)(C)C1 | 2.39 µM
COc1ccc(-[n+]2c(-c3ccccc3)cc(-c3ccc(C)cc3)cc2-c2ccccc2)cc1 | 3.61 µM
CS(=O)(=O)c1ccc(Sc2nc3ccccc3s2)c([N+](=O)[O-])c1 | 17.1 µM
C#CC[N+](C)(C)CCCCCCCCCCCC | 25.1 µM (inactive)
Cc1ccc(NS(=O)(=O)c2ccc(C(=O)NC3CCN(Cc4ccccc4)CC3)cc2)cc1 | 7.66 µM
COc1ccc(C(C(=O)NC2CCCCC2)N(C(=O)CCl)c2ccc(C)cc2)cc1 (stereo unspecified) | > 80 µM (inactive)
COc1ccc(C2=Nn3c([n+](C)c4ccccc43)SC2)cc1 | 2.63 µM
COc1ccc([N+](=O)[O-])cc1Nc1c2ccccc2nc2ccccc12 | 1.38 µM
CCN(CC)c1ccc(/C=N/NC(=O)c2nnn(-c3nonc3N)c2C(C)C)c(O)c1 | 0.22 µM
CCC/C(O)=C1\C(=O)CC(C)(C)CC1=Nc1ccc(OC)cc1OC | 18.4 µM

Structure (SMILES) | IC50
CCOC(=O)c1[nH]c(C=O)c(C(=O)OCC)c1C | 15.5 µM
Cc1cnc(NC(=O)c2ccc3c(c2)OCCO3)s1 | 3.78 µM
CCCCCCCCCCn1c2c(c(=N)c3c1CCC3)CCC2 | 1.29 µM
O=C(Nc1ccc(S(=O)(=O)Nc2ccccc2)cc1)c1ccc(CN2CCOCC2)cc1 | 5.23 µM
CCOc1ccc(S(=O)(=O)N2c3ccccc3CC2C)cc1 (stereo unspecified) | 5.98 µM
COc1cc(C(=O)N2CCN(c3cc(Cl)ccc3Cl)CC2)cc(OC)c1OC | 3.01 µM
CCc1ccc(/C=N/NC(=O)c2cc(C3CC3)nc3ccccc23)s1 | 10.3 µM
C/C=C(\C)C(=O)N[C@@H](c1ccccc1)[C@@H](O)C(=O)O[C@H]1C[C@@]2(O)[C@@H](OC(=O)c3ccccc3)C3[C@](C)(C(=O)[C@H](OC(C)=O)C(=C1C)C2(C)C)[C@@H](O)C[C@H]1OC[C@@]31OC(C)=O (stereo partly specified) | > 80 µM (inactive)
Nc1nc(-c2ccccc2)cc(N2CCCCC2)n1 | 2.23 µM
CCCCCCCn1c2c(c(=N)c3ccccc31)CCC2 | 0.99 µM
CCCCCCCCCCCCCCCC[n+]1cccc(C(=O)N(CC)CC)c1 | 20.9 µM (inactive)
COc1ccc(C(=O)Nc2ccc3[nH]c(-c4cccc(OC)c4)cc(=O)c3c2)cc1 | > 80 µM (inactive)
CNC[C@@H](CC1CCCCC1)NC[C@H](CC(C)C)NCCc1cccc(C(F)(F)F)c1 | 12.8 µM
CC1=CC(C)(C)N(S(=O)(=O)c2ccc(C)cc2)c2cc(C)ccc21 | 2.17 µM
Cc1c(C)c2ccc(OCC(=O)Nc3ccccn3)c(C)c2oc1=O | 1.78 µM
O=C1C=CCC(/C=C/c2ccccc2)O1 (stereo unspecified) | 22.2 µM (inactive)
COc1ccc(C)cc1NS(=O)(=O)c1ccc(-c2cnc(C3CC3)o2)cc1 | 0.84 µM
CCC(=O)NC(c1ccc(C)cc1)c1ccc2cccnc2c1O (stereo unspecified) | 0.73 µM
CN1/C(=C\C(=O)C[n+]2ccc3ccccc3c2)C(C)(C)c2ccccc21 | 4.62 µM
COC(=O)c1[nH]c2ccc(Br)cc2c1NC(=O)CN1CCN(C2CCCCC2)CC1 | 13.4 µM
CC1=C([N+](=O)[O-])C(c2ccccc2)C2=C(N1)c1ccccc1C2=O (stereo unspecified) | 8.44 µM
COc1ccccc1-c1nnc2sc(-c3ccc(N(C)C)cc3)nn12 | 2.32 µM
CCn1ncc(C2=NOC(C(=O)NCc3ccc(Cl)cc3)C2)c1C (stereo unspecified) | 26 µM (inactive)
CCN1/C(=C/C(C)=C/c2sc3ccccc3[n+]2CC)Sc2ccccc21 | 0.78 µM

Structure (SMILES) | IC50
COc1ccc(C(=O)N2CCN(c3ccc([N+](=O)[O-])c(NCCc4ccc(OC)c(OC)c4)c3)CC2)cc1 | 0.31 µM
C[C@@H]1O[C@@H](O[C@H]2C[C@@H](O)[C@]3(CO)[C@H]4[C@H](O)C[C@]5(C)[C@@H](C6COC(=O)C6)CC[C@]5(O)[C@@H]4CC[C@]3(O)C2)[C@H](O)[C@H](O)[C@H]1O (stereo partly specified) | 0.87 µM
CCCCc1ccc(NC(=O)C(=O)NCCN2CCN(Cc3ccc([N+](=O)[O-])cc3)CC2)cc1 | 0.4 µM
COc1ccc(-c2c(C#N)c(N)nc3c2CCc2ccccc2-3)cc1OC | 8.28 µM
CCCOC(=O)c1[nH]c2c(c1C)C(=O)CC(c1cccs1)C2 (stereo unspecified) | 15.2 µM
CCc1cc(C(=O)NC2CCCc3c2cnn3-c2cccc(C)c2C)n(C)n1 (stereo unspecified) | < 0.16 µM
COc1ccc(COC(=O)c2cc([N+](=O)[O-])ccc2N2CCOCC2)cc1F | 2.29 µM
CCn1c2ccccc2c2cc(NC(=O)c3cc(OC)cc(OC)c3)ccc21 | > 80 µM (inactive)
CC(=O)Nc1ccc(S(=O)(=O)N2CCSc3ccccc32)cc1 | 21.3 µM (inactive)
Cc1ccc(N(C)S(=O)(=O)c2ccc(-c3cnc(C4CC4)o3)cc2)cc1 | 4.53 µM
CC/C=C/CC(=O)N[C@@H](c1ccccc1)[C@@H](O)C(=O)O[C@H]1C[C@@]2(O)[C@@H](OC(=O)c3ccccc3)C3[C@](C)(C(=O)[C@H](OC(C)=O)C(=C1C)C2(C)C)[C@@H](O)C[C@H]1OC[C@@]31OC(C)=O (stereo partly specified) | > 80 µM (inactive)
Cc1ccc(-n2ncc3c(N4CCN(c5ccccc5)CC4)ncnc32)c(C)c1 | 3.24 µM
O=c1cc(-c2cccc(F)c2)[nH]c2ccccc12 | 1.05 µM
C[C@]12CC[C@H](O)C[C@H]1CC[C@@H]1[C@@H]2CC[C@]2(C)[C@@H](C3=CC(=O)OC3)CC[C@]12O | < 0.16 µM
O=C1C=CC(O)(c2cc(=O)c3c(O)cc(O)cc3o2)C=C1 | 20.5 µM (inactive)
CN(C)S(=O)(=O)c1ccc(Nc2nc(C3CC3)nc3c2nnn3Cc2ccccc2Cl)cc1 | 4.04 µM
CC[C@@]1(O)C(=O)OCc2c1cc1n(c2=O)Cc2cc3c(N)cccc3nc2-1 | 6.02 µM
Cc1ccc2c(c1)COc1c3ccc(C(=O)O)cc3nn1-2 | 12.9 µM
Cc1ccc(C(=O)Nc2cc3ccccc3oc2=O)cc1 | 0.94 µM
O=[N+]([O-])c1nn(-c2ccc3c(c2)OCCO3)n(O)c1=Nc1ccccc1 | 12.4 µM
C=C(C)[C@@]12OC3(c4ccccc4)O[C@@H]1C1[C@@H]4O[C@]4(CO)[C@@H](O)[C@]4(O)C(=O)C(C)=C[C@H]4[C@@]1(O3)[C@H](C)[C@H]2OC(=O)/C=C/C=C/c1ccccc1 (stereo partly specified) | < 0.16 µM
O=C(c1cc(-c2ccncc2)nc2c(Cl)cccc12)N1CCN(c2ccccc2F)CC1 | 12.5 µM
Cc1ccc(C(=O)c2cc([N+](=O)[O-])ccc2N2CCOCC2)c(C)c1 | 4.92 µM
CCc1ccc(N2C(=O)C(Cl)=C(Nc3ccc(C(=O)N4CCCC4)cc3)C2=O)cc1 | 66.9 µM (inactive)

Structure (SMILES) | IC50
CC(C)CC[n+]1ccccc1/C=C/c1ccc(N(C)C)cc1 | 1.62 µM
COc1ccc([C@H]2CC(=O)C=C(c3ccc(OC)cc3OC)C2)cc1 | 9.99 µM
O=C(NCCc1ccccc1)c1ccc2c(c1)OCCO2 | 1.3 µM
COc1cc(/C=C2/SC(=Nc3ccc(O)cc3)NC2=O)ccc1O | 3.51 µM
c1ccc(-c2noc(-c3ccc4c(c3)OCO4)n2)nc1 | 1.4 µM
COc1ccc(Nc2cc(C)nc(-n3nc(C)cc3C)n2)cc1 | 6.55 µM
O=S(=O)(C/C(=C/CO)S(=O)(=O)c1ccccc1)c1ccccc1 | 6.81 µM
CCOc1ccc(S(=O)(=O)NCc2ccccn2)cc1NC(=O)c1ccccc1 | 40.7 µM (inactive)
CC(=O)c1ccc(N2CCN(S(=O)(=O)c3ccc4c(c3)CC(C)N4C(=O)C3CC3)CC2)cc1 (stereo unspecified) | 3.06 µM
CCn1ncc(C2=NOC(C(=O)NCc3ccccc3)C2)c1C (stereo unspecified) | 2.39 µM
COC(=O)C(Cc1ccc(N(CCCl)CCCl)cc1)N=Cc1ccccc1O (stereo unspecified) | 43.4 µM (inactive)
O=C(Nc1ccc(S(=O)(=O)Nc2ccc(F)cc2)cc1)c1ccc(CN2CCOCC2)cc1 | 5.68 µM
CCN(CC)c1ccc(-c2nn3c(-c4n[nH]c5c4CCC5)nnc3s2)cc1 | 2.16 µM
C[C@]12CC[C@@H]3c4cc(O)c(O)cc4CC[C@H]3[C@@H]1CC[C@@H]2O | 45 µM (inactive)
Cn1ncc2c(N3CCN(c4ccc(Cl)c(Cl)c4)CC3)ncnc21 | 1.29 µM
Cc1ccc(NC(=O)CSc2nc(-c3ccco3)cc(C(F)(F)F)n2)cc1C | > 80 µM (inactive)
COc1cc(NS(=O)(=O)c2ccc(OC)c(C)c2C)c(OC)cc1Cl | 5.28 µM
Cn1ncnc2c(=O)n(C)c(=O)nc1-2 | 1.11 µM
CCOc1ccccc1C(=O)Nc1ccc2nc(N3CCN(c4ncccn4)CC3)cc(C)c2c1 | 15.2 µM
CCCCCC(=O)N[C@@H](c1ccccc1)[C@@H](O)C(=O)O[C@H]1C[C@@]2(O)[C@@H](OC(=O)c3ccccc3)C3[C@](C)(C(=O)[C@H](OC(C)=O)C(=C1C)C2(C)C)[C@@H](O)C[C@H]1OC[C@@]31OC(C)=O (stereo partly specified) | > 80 µM (inactive)
CC(=O)c1sc2c(c1OC(=O)c1ccc(Cl)cc1Cl)c(=O)n(-c1ccccc1)c(=S)n2-c1ccccc1 | 28.7 µM (inactive)
CCCCS(=O)(=O)/C=C\C=C/S(=O)(=O)CCCC | 20.2 µM (inactive)
COc1cccc(CN(C)C(=O)c2ccc(OCC(=O)Nc3cccc(C(F)(F)F)c3)c(OC)c2)c1 | 1.88 µM
Cc1cc(C(C)(C)C)cc(C)c1C[n+]1ccc2ccccc2c1 | 4.34 µM
